Reference: patent US7718653B2, “Pyrimidine derivatives for inhibiting Eph receptors” (AstraZeneca AB, priority 2007, dated 2010)

Biological target: T1, recombinant EphB4 (Homo sapiens, UniProt P54760)
T1 construct: amino acids 563-987; Swiss-Prot Acc; No. P54760; purchased ProQinase GmbH 0178-0000-3
T1 sequence (P54760 563-987): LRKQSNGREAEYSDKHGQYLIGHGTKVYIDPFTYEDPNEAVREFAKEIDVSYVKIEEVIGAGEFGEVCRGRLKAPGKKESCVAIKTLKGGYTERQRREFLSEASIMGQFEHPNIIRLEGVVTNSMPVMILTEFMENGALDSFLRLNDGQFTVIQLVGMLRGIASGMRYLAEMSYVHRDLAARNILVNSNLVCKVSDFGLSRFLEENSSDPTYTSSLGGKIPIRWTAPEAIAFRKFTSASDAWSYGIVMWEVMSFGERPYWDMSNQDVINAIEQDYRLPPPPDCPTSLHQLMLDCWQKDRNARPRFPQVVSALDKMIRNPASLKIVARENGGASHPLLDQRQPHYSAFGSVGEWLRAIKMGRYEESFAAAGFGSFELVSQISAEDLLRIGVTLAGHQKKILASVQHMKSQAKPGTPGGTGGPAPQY
Test: In vitro EphB4 enzyme assay (Alphascreen, phosphorylation of biotin-poly-GAT)
Format: biochemical
Details: method of compound preparation not stated; read-out: IC50 in assay A
Experimental: A) In vitro EphB4 Enzyme Assay
This assay detects inhibitors of EphB4-mediated phosphorylation of a polypeptide substrate using Alphascreen™ luminescence detection technology. Briefly, recombinant EphB4 was incubated with a biotinylated-polypeptide substrate (biotin-poly-GAT) in presence of magnesium-ATP. The reaction was stopped by addition of EDTA, together with streptavidin-coated donor beads which bind the biotin-substrate containing any phosphorylated tyrosine residues. Anti-phosphotyrosine antibodies present on acceptor beads bind to phosphorylated substrate, thus bringing the donor & acceptor beads into close proximity. Subsequent excitation of the donor beads at 680 nm generated singlet oxygen species that interact with a chemiluminescer on the acceptor beads, leading to light emission at 520-620 nm. The signal intensity is directly proportional to the level of substrate phosphorylation and thus inhibition is measured by a decrease in signal.
Aqueous Compound Preparation:
Acoustic Compound Preparation:
To ensure that each well contained a total of 120 nl DMSO the wells were all backfilled as required. […] The test range of compounds was 100× the required final concentration.
Assay plates were then incubated at room temperature for 1 hour.
For assays using compounds prepared via acoustic dispensing, the assay mix was adjusted such that the final assay volume of 12 ul contained the same concentration of reagent as 10 ul of assay mix used when aqueous compounds were tested.
The plates were sealed under natural lighting conditions, wrapped in aluminium foil and incubated in the dark for a further 20 hours.
The resulting assay signal was determined on the Perkin Elmer EnVision plate reader. The minimum value was subtracted from all values, and the signal plotted against compound concentration to generate IC50 data. The method used to generate the compound dilutions was recorded with the IC50 value in the database.

`c1cc(Nc2ccnc(Nc3cc(N4CCOCC4)nc(N4CCOCC4)c3)n2)c2cn[nH]c2c1` [Example 3, N2-(2,6-dimorpholinopyridin-4-yl)-N4-(1H-indazol-4-yl)pyrimidine-2,4-diamine] was tested, and the IC50 was 0.243 µM.
